Data as given in US10266550B2, “Bacterial topoisomerase I inhibitors with antibacterial activity” (The Florida International University Board of Trustees, priority 2016, dated 2019).
In brackets after ≈: the same amount, converted by molar mass. Like-named read-outs stand apart in the source and are kept apart here.

What was measured:
[1] = molecular target: E. coli topoisomerase I (Escherichia coli (strain K12), UniProt P06612); test: biochemical; assay type: biochemical; conditions: for PIC50 (pIC50 = −log IC50): experimental, converted from IC50
Chain of E. coli topoisomerase I (P06612 whole entry, looked up): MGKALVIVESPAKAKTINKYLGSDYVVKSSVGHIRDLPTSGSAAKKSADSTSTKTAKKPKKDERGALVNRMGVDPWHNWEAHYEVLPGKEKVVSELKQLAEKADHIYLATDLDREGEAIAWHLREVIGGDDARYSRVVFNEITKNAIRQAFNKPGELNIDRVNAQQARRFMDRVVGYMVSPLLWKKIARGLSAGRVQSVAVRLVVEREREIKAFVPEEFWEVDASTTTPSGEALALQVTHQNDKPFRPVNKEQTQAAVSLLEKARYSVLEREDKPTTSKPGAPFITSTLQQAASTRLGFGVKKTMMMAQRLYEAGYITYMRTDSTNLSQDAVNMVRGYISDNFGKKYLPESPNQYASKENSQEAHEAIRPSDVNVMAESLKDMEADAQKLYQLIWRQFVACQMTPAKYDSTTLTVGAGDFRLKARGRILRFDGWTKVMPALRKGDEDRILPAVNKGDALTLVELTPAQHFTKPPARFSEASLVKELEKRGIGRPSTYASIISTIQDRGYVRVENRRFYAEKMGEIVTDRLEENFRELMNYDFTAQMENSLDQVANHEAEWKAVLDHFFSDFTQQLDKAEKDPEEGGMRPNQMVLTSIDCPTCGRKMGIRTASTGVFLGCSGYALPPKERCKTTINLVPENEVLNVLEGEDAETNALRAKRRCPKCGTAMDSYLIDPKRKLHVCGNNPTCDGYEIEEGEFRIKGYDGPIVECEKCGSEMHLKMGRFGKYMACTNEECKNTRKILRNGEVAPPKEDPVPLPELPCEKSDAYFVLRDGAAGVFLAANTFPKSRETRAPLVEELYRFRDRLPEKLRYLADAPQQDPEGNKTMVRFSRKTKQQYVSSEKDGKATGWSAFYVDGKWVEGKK
Experimental: (§1) Recombinant E. coli topoisomerase I and gyrase expressed in E. coli were purified as described previously.
E. coli Topoisomerase I Relaxation Activity Inhibition Assay
The relaxation activity of E. coli topoisomerase I was assayed in a buffer containing 10 mM Tris-HCl, pH 8.0, 50 mM NaCl, 0.1 mg/mL gelatin, and 0.5 mM MgCl2. Half microliter from the appropriate stock solutions of compounds dissolved in the solvent (DMSO) or the solvent alone (control) was mixed with 9.5 μL of the reaction buffer containing 10 ng of enzyme before the addition of 10 μL of reaction buffer containing 200 ng of supercoiled pBAD/Thio plasmid DNA purified by cesium chloride gradient as substrate. Following incubation at 37° C. for 30 min, the reactions were terminated by the addition of 4 μL of a stop buffer (50% glycerol, 50 mM EDTA, and 0.5% (v/v) bromophenol blue), and analyzed by agarose gel electrophoresis. The gels were stained in ethidium bromide and photographed under UV light.

[2] = molecular target: E. coli DNA gyrase (Escherichia coli (strain K12), UniProt P0AES4+P0AES6); test: DNA gyrase supercoiling inhibition assay; assay type: biochemical; conditions: for IC50: supercoiling of relaxed DNA, read-out: Topoisomerase inhibitory activity (IC50) E. coli DNA gyrase (type IIA)
Experimental: as §1
The samples were incubated at 37° C. for 30 minutes before being terminated by the addition of a buffer containing 5% SDS, 0.25% bromophenol blue, and 25% glycerol. The reactions were then analyzed by agarose gel electrophoresis.

[3] = molecular target: Human topoisomerase I (Homo sapiens (Human), UniProt P11387); test: Human topoisomerase I relaxation inhibition assay; assay type: biochemical; conditions: read-out: Topoisomerase inhibitory activity (IC50) Human topo I (type IB)
Chain of Human topoisomerase I (P11387 whole entry): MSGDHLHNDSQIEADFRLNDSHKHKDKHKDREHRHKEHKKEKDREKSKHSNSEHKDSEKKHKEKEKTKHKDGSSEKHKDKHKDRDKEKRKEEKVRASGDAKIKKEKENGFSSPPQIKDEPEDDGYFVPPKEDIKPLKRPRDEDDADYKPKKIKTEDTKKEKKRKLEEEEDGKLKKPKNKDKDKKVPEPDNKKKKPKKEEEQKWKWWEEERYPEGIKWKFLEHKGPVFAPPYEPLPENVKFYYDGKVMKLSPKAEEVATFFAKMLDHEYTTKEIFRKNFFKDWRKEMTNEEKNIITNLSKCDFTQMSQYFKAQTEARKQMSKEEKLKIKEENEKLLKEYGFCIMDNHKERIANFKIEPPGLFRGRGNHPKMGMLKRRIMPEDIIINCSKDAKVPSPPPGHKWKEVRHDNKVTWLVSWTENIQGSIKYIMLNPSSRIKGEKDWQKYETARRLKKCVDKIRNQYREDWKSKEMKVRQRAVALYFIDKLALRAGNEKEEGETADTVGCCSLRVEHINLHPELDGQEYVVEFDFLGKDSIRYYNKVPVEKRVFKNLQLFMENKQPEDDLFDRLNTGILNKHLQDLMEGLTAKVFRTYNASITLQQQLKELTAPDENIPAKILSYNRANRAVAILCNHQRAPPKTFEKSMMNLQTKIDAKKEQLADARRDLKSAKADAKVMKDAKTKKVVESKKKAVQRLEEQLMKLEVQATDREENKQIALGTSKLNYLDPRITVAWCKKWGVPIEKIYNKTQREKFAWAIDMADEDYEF
Experimental: Human topoisomerase I relaxation assays were carried out with 0.5 U of enzyme in reaction buffer supplied by the manufacturer. The enzyme was mixed with the indicated concentration of compound dissolved before 200 ng of supercoiled pBAD/Thio plasmid DNA was added in the same buffer, for a final volume of 20 μL. Following incubation at 37° C. for 30 minutes, the reactions were terminated with a buffer containing 5% SDS, 0.25% bromophenol blue, and 25% glycerol, and analyzed by agarose gel electrophoresis.
Human topoisomerase I and topoisomerase IIα were purchased from TopoGen (Buena vista, CO, USA).

[4] = molecular target: Human topoisomerase IIα (Homo sapiens (Human), UniProt P11388); test: Human topoisomerase IIα decatenation inhibition assay; assay type: biochemical; conditions: kDNA decatenation; read-out: Topoisomerase inhibitory activity (IC50) Human topo IIα (type IIA)
Chain of Human topoisomerase IIα (P11388 whole entry): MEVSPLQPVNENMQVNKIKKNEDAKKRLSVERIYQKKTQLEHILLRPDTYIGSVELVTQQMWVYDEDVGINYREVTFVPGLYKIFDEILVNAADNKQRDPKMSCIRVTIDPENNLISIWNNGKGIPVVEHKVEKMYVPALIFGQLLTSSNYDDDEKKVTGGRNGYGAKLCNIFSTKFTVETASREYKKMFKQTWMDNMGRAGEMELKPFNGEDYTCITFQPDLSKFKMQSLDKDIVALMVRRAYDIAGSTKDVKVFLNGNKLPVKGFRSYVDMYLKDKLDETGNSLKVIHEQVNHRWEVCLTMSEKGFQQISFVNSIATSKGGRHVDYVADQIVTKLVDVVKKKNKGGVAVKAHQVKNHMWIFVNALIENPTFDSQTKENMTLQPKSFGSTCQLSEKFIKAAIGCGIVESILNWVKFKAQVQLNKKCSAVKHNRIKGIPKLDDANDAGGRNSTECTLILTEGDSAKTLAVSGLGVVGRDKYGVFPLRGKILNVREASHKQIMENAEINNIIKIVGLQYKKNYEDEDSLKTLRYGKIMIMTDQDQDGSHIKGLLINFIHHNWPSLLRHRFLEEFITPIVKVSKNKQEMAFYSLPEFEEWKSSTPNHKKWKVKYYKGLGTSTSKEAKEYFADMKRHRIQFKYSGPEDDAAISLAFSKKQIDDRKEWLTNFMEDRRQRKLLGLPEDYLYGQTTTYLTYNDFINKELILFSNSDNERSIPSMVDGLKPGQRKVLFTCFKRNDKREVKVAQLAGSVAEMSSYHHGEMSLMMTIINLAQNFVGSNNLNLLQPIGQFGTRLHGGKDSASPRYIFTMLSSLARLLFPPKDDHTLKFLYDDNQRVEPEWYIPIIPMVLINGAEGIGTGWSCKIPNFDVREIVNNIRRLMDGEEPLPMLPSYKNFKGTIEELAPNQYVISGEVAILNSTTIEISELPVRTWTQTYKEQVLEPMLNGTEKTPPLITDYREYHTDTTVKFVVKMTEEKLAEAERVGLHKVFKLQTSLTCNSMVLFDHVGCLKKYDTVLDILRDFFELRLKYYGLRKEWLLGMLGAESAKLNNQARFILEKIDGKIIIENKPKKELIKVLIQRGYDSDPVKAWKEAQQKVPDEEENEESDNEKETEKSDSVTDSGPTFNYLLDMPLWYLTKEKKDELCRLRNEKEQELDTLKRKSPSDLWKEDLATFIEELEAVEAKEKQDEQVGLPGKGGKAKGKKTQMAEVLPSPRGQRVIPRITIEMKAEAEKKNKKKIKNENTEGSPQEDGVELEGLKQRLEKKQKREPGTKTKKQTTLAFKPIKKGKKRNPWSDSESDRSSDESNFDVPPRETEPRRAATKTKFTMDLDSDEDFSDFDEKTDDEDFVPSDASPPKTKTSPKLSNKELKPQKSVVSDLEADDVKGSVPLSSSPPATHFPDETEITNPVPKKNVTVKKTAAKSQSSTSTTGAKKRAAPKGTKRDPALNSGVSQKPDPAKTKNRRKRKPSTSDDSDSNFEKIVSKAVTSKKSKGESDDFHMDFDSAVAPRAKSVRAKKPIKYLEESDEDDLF
Experimental: Human topoisomerase I and topoisomerase IIα were purchased from TopoGen (Buena vista, CO, USA). […] The reactions were then analyzed by electrophoresis in 1% agarose gels containing […] ethidium bromide before being photographed under UV light.

[5] = tested on: E. coli Imp4213 (BAS3023); test: MIC, microdilution in Mueller-Hinton Broth; assay type: cell-based; conditions: for MIC: Escherichia coli, read-out: Whole cell based antibacterial activity (MIC) E. coli Imp4213 (BAS3023), membrane permeable imp mutant; for Whole cell based antibacterial activity (MIC) E. coli Imp4213 (BAS3023): membrane permeable imp mutant
[6] = tested on: E. coli (MG1655) WT; test: MIC, microdilution in Mueller-Hinton Broth; conditions: wild type, read-out: Whole cell based antibacterial activity (MIC) E. coli (MG1655) WT
[7] = tested on: bacterial strains; test: Whole cell antibacterial activity after storage; assay type: cell-based; conditions: after 4 weeks of storage
[8] = 1H NMR experiments
[9] = tested on: M. tuberculosis (H37Rv); test: MIC, microplate Alamar blue assay (MABA); assay type: cell-based
[10] = Vero cell cytotoxicity assay; assay type: cell-based
Experimental: (§2) MICs of compounds against M. tuberculosis were determined by a modified microplate Alamar blue assay (MABA). Vero cell cytotoxicity assay was performed as previously described.

[11] = tested on: Vero cells; test: Vero cell cytotoxicity assay; assay type: cell-based; conditions: for IC50: cytotoxicity
Experimental: as §2

[12] = molecular target: Mycobacterium tuberculosis topoisomerase I (Mycobacterium tuberculosis (strain ATCC 25618 / H37Rv), UniProt P9WG49); test: Mycobacterium tuberculosis topoisomerase I inhibition; assay type: biochemical; conditions: Table 2; read-out: IC50 against Mycobacterium tuberculosis topoisomerase I
[13] = tested on: MRSA (staphylococcus aureus BAA44); test: MIC against MRSA; assay type: cell-based
[14] = tested on: B. subtilis (ATCC 6633) WT; test: MIC, microdilution in Mueller-Hinton Broth; conditions: wild type; read-out: Whole cell based antibacterial activity (MIC) B. subtilis (ATCC 6633) WT
[15] = tested on: mycobacterium smegmatis in biofilm; test: Biofilm viability by resazurin assay; assay type: cell-based
Experimental: Viability of the mycobacteria mycobacterium smegmatis in biofilm was measured by the resazurin assay.
The resazurin assay is a quick method using the resazurin dye as a bacterial respiration indicator to assay the antibacterial activity of various compounds used against bacterial biofilm growth. Such assay is well-known in the art. […] The biofilm was quantified indirectly by measuring the fluorescent, water-soluble resorufin product produced when resazurin is reduced by reactions associated with respiration.

[16] = tested on: several cancer cell lines; conditions: literature [32]; read-out: IC50 against several cancer cell lines; cited from earlier work
[17] = Mycobacterium tuberculosis, H37RV, MABA, read-out: Whole cell based antibacterial activity (MIC) M. tuberculosis (H37Rv)
[18] = Table 3, E. coli topoisomerase I, single values set for ranges and bounds, read-out: IC50 (μM) used for CoMFA
[19] = relaxation of supercoiled plasmid DNA, read-out: Topoisomerase inhibitory activity (IC50) E. coli topo I (type IA)
[20] = MABA, read-out: Whole cell based antibacterial activity (MIC) M. tuberculosis (H37Rv)
[21] = Topoisomerase inhibitory activity (IC50) E. coli topo I (type IA), relaxation of supercoiled plasmid DNA

## Nc1ccc2c(c1)Oc1c(F)c(F)cc3c(=O)c(C(=O)O)cn-2c13 [Compound 1, 9-Amino-5,6-difluoro-3-oxo-3H-pyrido[3,2,1-kl]phenoxazine-2-carboxylic acid]
[1]
  PIC50 (pIC50 = −log IC50): 5.71
[2]
  IC50: > 125 µM
[3]
  IC50: 31.3 µM
[4]
  IC50: > 500 µM
[5]
  MIC: 0.78 to 1.56 µM (≈ 0.258 to 0.515 µg/mL)
[6]; Escherichia coli, MG1655
  MIC: > 200 µM
[7]
  loss of whole cell antibacterial activity after storage: 2-4 fold
[8]
  precipitation in d6-DMSO solvent: could be easily precipitated out

## O=C(O)c1cn2c3c(c(F)c(F)cc3c1=O)Oc1cc([N+](=O)[O-])c(Cl)cc1-2 [Compound 7e, 10-Chloro-5,6-difluoro-9-nitro-3-oxo-3H-pyrido[3,2,1-kl]phenoxazine-2-carboxylic acid]
[1]
  PIC50 (pIC50 = −log IC50): 4.51
[2]
  selectivity toward topoisomerase I over DNA gyrase: 2 fold
  IC50: 62.5 µM
[3]
  IC50: 31.2 µM
[4]
  IC50: 125 µM
[5]
  MIC: 0.39 µM (≈ 0.154 µg/mL)
[6]; Escherichia coli, MG1655
  MIC: 50 µM (≈ 19.7 µg/mL)
[9]; [17]
  MIC: 29 µM (≈ 11.4 µg/mL)
[10]; monkey
  selectivity ratio: > 4.4
[11]; Chlorocebus sabaeus, Vero
  IC50: > 127 µM

## CN1CCN(c2c(F)cc3c(=O)c(C(=O)O)cn4c3c2Oc2cc([N+](=O)[O-])ccc2-4)CC1 [Compound 10a, 5-Fluoro-6-(4-methylpiperazin-1-yl)-9-nitro-3-oxo-3H-pyrido[3,2,1-kl]phenoxazine-2-carboxylic acid]
[1]
  PIC50 (pIC50 = −log IC50): 5.71
[3]
  IC50: 31.2 µM
[4]
  IC50: 250 to 500 µM
[5]
  MIC: 1.56 µM (≈ 0.687 µg/mL)
[6]; Escherichia coli, MG1655
  MIC: 100 µM (≈ 44 µg/mL)
[9]; [17]
  MIC: 19 µM (≈ 8.37 µg/mL)
[10]; monkey
  selectivity ratio: 5
[11]; Chlorocebus sabaeus, Vero
  IC50: 95 µM

## Nc1ccc2c(c1)Oc1c(N3CCOCC3)c(F)cc3c(=O)c(C(=O)O)cn-2c13 [Compound 11d, 9-Amino-5-fluoro-6-morpholino-3-oxo-3H-pyrido[3,2,1-kl]phenoxazine-2-carboxylic acid]
[1]
  PIC50 (pIC50 = −log IC50): 6.01
[2]
  IC50: 7.8 µM
[3]
  IC50: 15.6 µM
[4]
  IC50: 15.6 µM
[5]
  MIC: 0.19 to 0.39 µM (≈ 0.0755 to 0.155 µg/mL)
[6]; Escherichia coli, MG1655
  MIC: > 200 µM
[9]; [17]
  MIC: 3.5 µM (≈ 1.39 µg/mL)
[10]; monkey
  selectivity ratio: 7.1
[11]; Chlorocebus sabaeus, Vero
  IC50: 24.7 µM
[12]
  IC50: 480 nM
[13]
  MIC: 3 µM (≈ 1.19 µg/mL)

## Nc1ccc2c(c1)Oc1c(NC34CC5CC(CC(C5)C3)C4)c(F)cc3c(=O)c(C(=O)O)cn-2c13 [Compound 11f, 6-(((3s, 5s, 7s)-Adamantan-1-yl)amino)-9-amino-5-fluoro-3-oxo-3H-pyrido[3,2,1-kl]phenoxazine-2-carboxylic acid]
[1]; [18]
  IC50: 5.85 µM
[1]
  PIC50 (pIC50 = −log IC50): 5.23
[1]; [19]
  IC50: 3.9 to 7.8 µM
[5]
  Whole cell based antibacterial activity (MIC) E. coli Imp4213 (BAS3023): 3.12 µM
[6]
  MIC: >200 µM
[14]
  MIC: 12.5 µM (≈ 5.77 µg/mL)
[9]; [20]
  MIC: 38.4 µM (≈ 17.7 µg/mL)
[11]
  SI (Selectivity index = cytotoxic IC50 against Vero cells/MIC against M. tuberculosis): 0.8
  IC50: 30.7 µM

## Nc1ccc2c(c1)Oc1c(N3CCC(N4CCCCC4)CC3)c(F)cc3c(=O)c(C(=O)O)cn-2c13 [Compound 11g, 6-([1,4′-Bipiperidin]-1′-yl)-9-amino-5-fluoro-3-oxo-3H-pyrido[3,2,1-kl]phenoxazine-2-carboxylic acid]
[1]; [21]
  IC50: 0.24 to 0.97 µM
[1]
  PIC50 (pIC50 = −log IC50): 6.31
[1]; [19]
  IC50: 0.48 µM
[2]
  IC50: 15.6 µM
[3]
  IC50: 3.9 µM
[4]
  IC50: 1.95 to 3.9 µM
[5]
  MIC: 0.39 to 0.78 µM (≈ 0.187 to 0.373 µg/mL)
[6]; Escherichia coli, MG1655
  MIC: > 200 µM
[9]; Mycobacterium tuberculosis strain H37Rv, Table 2, read-out: MIC (TB)
  MIC: 2.5 µM (≈ 1.2 µg/mL)
[9]; [17]
  MIC: 2.5 µM (≈ 1.2 µg/mL)
[10]; African green monkey
  selectivity ratio: 9.8
[10]; monkey
  selectivity ratio: 9.8
[11]; Chlorocebus sabaeus, Vero
  IC50: 24.4 µM
[12]
  IC50: 240 nM
[13]
  MIC: 12.5 µM (≈ 5.98 µg/mL)
[15]
  concentration that abolishes 90% of viability in biofilm: 1.5 to 3 µM

## Nc1ccc2c(c1)Oc1c(NCCN3CCOCC3)c(F)cc3c(=O)c(C(=O)O)cn-2c13 [Compound 11h, 9-Amino-5-fluoro-6-((2-morpholinoethyl)amino)-3-oxo-3H-pyrido[3,2,1-kl]phenoxazine-2-carboxylic acid]
[2]
  IC50: 15.6 to 31.2 µM
[3]
  IC50: 7.8 to 15.6 µM
[5]
  Whole cell based antibacterial activity (MIC) E. coli Imp4213 (BAS3023): 0.78 µM
[6]
  MIC: >200 µM
[9]; [20]
  MIC: 21.6 µM (≈ 9.51 µg/mL)
[11]; Chlorocebus sabaeus, Vero
  IC50: 43 µM

## N[C@H]1CCN(c2c(F)cc3c(=O)c(C(=O)O)cn4c3c2Oc2cc([N+](=O)[O-])ccc2-4)C1 [Compound 16, (S)-6-(3-aminopyrrolidin-1-yl)-5-fluoro-9-nitro-3-oxo-3H-pyrido[3,2,1-kl]phenoxazine-2-carboxylic acid]
[1]; [21]
  IC50: 0.24 to 0.97 µM
[1]
  PIC50 (pIC50 = −log IC50): 6.32
[2]
  IC50: 3.9 µM
[3]
  IC50: 7.8 µM
[5]
  MIC: 1.56 µM (≈ 0.665 µg/mL)
[6]; Escherichia coli, MG1655
  MIC: > 200 µM
[9]; [17]
  MIC: > 50 µM
[11]; Chlorocebus sabaeus, Vero
  IC50: > 50 µM

## Nc1ccc2c(c1)Oc1c(N3CC[C@H](N)C3)c(F)cc3c(=O)c(C(=O)O)cn-2c13 [Compound 17a, (S)-9-amino-6-(3-aminopyrrolidin-1-yl)-S-fluoro-3-oxo-3H-pyrido[3,2,1-kl]phenoxazine-2-carboxylic acid]
[1]; [18]
  IC50: 0.73 µM
[1]
  PIC50 (pIC50 = −log IC50): 6.14
[1]; [19]
  IC50: 0.48 to 0.97 µM
[5]
  Whole cell based antibacterial activity (MIC) E. coli Imp4213 (BAS3023): 1.56 µM
[6]
  MIC: >200 µM
[14]
  MIC: 6.25 µM (≈ 2.48 µg/mL)
[9]; [20]
  MIC: >63.1 µM
[11]
  IC50: > 63.1 µM

## N[C@H]1CCN(c2c(F)cc3c(=O)c(C(=O)O)cn4c3c2Oc2ccccc2-4)C1 [Compound A-62176]
[16]
  IC50: 870 to 4340 nM

## O=C(O)c1cn(C2CC2)c2cc(N3CCNCC3)c(F)cc2c1=O [ciprofloxacin, reference compound]
[15]
  concentration that abolishes 90% of viability in biofilm: ≥ 24 µM
